The supplement of paper PMC5908809

Legend:
[1] = system: normal NK cells expanded with K562-aAPC; assay: percent inhibition of viability; higher = more inhibition; settings: 72 h, IL-2 2.5 ng/mL
Procedure: (§1)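 Drug sensitivity and resistance testing on K562-aAPC-expanded normal NK cells: 5 concentrations (10-fold steps over a 10,000-fold range), 72 h at 37 °C, viability by CellTiter-Glo normalised to DMSO and benzethonium chloride controls; DSS from the fitted curve.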

DERL-7 (IL-2 2.5 ng/mL) [2] = assay: as above; settings: 72 h
IMC-1 (IL-2 20 ng/mL) [3] = assay: as above; settings: 72 h
KAI3 (IL-2 2.5 ng/mL) [4] = assay: as above; settings: 72 h
KHYG-1 (IL-2 2.5 ng/mL) [5] = assay: as above; settings: 72 h
NK-92 (IL-2 2.5 ng/mL) [6] = assay: as above; settings: 72 h
NK-YS (IL-2 2.5 ng/mL) [7] = assay: as above; settings: 72 h
NKL (IL-2 2.5 ng/mL) [8] = assay: as above; settings: 72 h
SNK-6 (IL-2 2.5 ng/mL) [9] = assay: as above; settings: 72 h
YT (IL-2 2.5 ng/mL) [10] = assay: as above; settings: 72 h
[11] = system: normal primary NK cells, pool 1 (3 donors) (IL-2 2.5 ng/mL); assay: as above; settings: 72 h
[12] = system: normal primary NK cells, pool 1 (3 donors), resting (IL-2 0 ng/mL); assay: as above; settings: 72 h
[13] = system: normal primary NK cells, pool 2 (3 donors) (IL-2 2.5 ng/mL); assay: as above; settings: 72 h
[14] = system: normal primary NK cells, pool 3 (3 donors) (IL-2 2.5 ng/mL); assay: as above; settings: 72 h
[15] = system: normal NK cells expanded with K562-aAPC; assay: drug sensitivity score (DSS) (DSS units); higher = more sensitive; extreme values may be limits of the assay; settings: 72 h; IL-2 2.5 ng/mL
Procedure: as §1

DERL-7 (IL-2 2.5 ng/mL) [16] = assay: as above; settings: 72 h
IMC-1 (IL-2 20 ng/mL) [17] = assay: as above; settings: 72 h
KAI3 (IL-2 2.5 ng/mL) [18] = assay: as above; settings: 72 h
KHYG-1 (IL-2 2.5 ng/mL) [19] = assay: as above; settings: 72 h
NK-92 (IL-2 2.5 ng/mL) [20] = assay: as above; settings: 72 h
NK-YS (IL-2 2.5 ng/mL) [21] = assay: as above; settings: 72 h
NKL (IL-2 2.5 ng/mL) [22] = assay: as above; settings: 72 h
SNK-6 (IL-2 2.5 ng/mL) [23] = assay: as above; settings: 72 h
YT (IL-2 2.5 ng/mL) [24] = assay: as above; settings: 72 h
[25] = system: normal primary NK cells, pool 1 (3 donors) (IL-2 2.5 ng/mL); assay: as above; settings: 72 h
[26] = system: normal primary NK cells, pool 1 (3 donors), resting (IL-2 0 ng/mL); assay: as above; settings: 72 h
[27] = system: normal primary NK cells, pool 2 (3 donors) (IL-2 2.5 ng/mL); assay: as above; settings: 72 h
[28] = system: normal primary NK cells, pool 3 (3 donors) (IL-2 2.5 ng/mL); assay: as above; settings: 72 h

Cn1c(CCCC(=O)O)nc2cc(N(CCCl)CCCl)ccc21 [Bendamustine] (max concentration tested 10000 nM)
percent inhibition of viability [%]
Settings | 1 nM | 10 nM | 100 nM | 1000 nM | 10000 nM
DERL-7 (IL-2 2.5 ng/mL) [2] | 2.35 | -0.75 | -0.87 | -0.14 | 8.22
IMC-1 (IL-2 20 ng/mL) [3] | -5.16 | -3.14 | 0.53 | 1.92 | 25.3
KAI3 (IL-2 2.5 ng/mL) [4] | -0.41 | 1.91 | 1.35 | -4.7 | 30.8
KHYG-1 (IL-2 2.5 ng/mL) [5] | -5.91 | 1.42 | 10.1 | 2.21 | 17.1
NK-92 (IL-2 2.5 ng/mL) [6] | -10.3 | -2.08 | 7.9 | -10.7 | 24.9
NK-YS (IL-2 2.5 ng/mL) [7] | -10.9 | -2.18 | 8.61 | 4.45 | 63.6
NKL (IL-2 2.5 ng/mL) [8] | -5.33 | -10.8 | 5.76 | 27.8 | 88.6
SNK-6 (IL-2 2.5 ng/mL) [9] | -1.78 | -2.24 | 14.2 | 17.1 | 67
YT (IL-2 2.5 ng/mL) [10] | -6.57 | -3.19 | 7.12 | -0.08 | 0
[1] | 3.13 | 1.48 | -1.08 | 12.2 | 42.8
[11] | -9.6 | -0.97 | -3.62 | -12.8 | 60.6
[12] | -1.75 | 6.06 | -6.12 | -12.6 | 88.2
[13] | -6.1 | -4.8 | 1.7 | 1.54 | 54.5
[14] | -2.58 | 1.8 | 5.19 | 5.5 | 54.3

Settings | drug sensitivity score
DERL-7 (IL-2 2.5 ng/mL) [16] | 0
IMC-1 (IL-2 20 ng/mL) [17] | 1.24
KAI3 (IL-2 2.5 ng/mL) [18] | 1.09
KHYG-1 (IL-2 2.5 ng/mL) [19] | 0.29
NK-92 (IL-2 2.5 ng/mL) [20] | 0.59
NK-YS (IL-2 2.5 ng/mL) [21] | 4.15
NKL (IL-2 2.5 ng/mL) [22] | 8.66
SNK-6 (IL-2 2.5 ng/mL) [23] | 5.85
YT (IL-2 2.5 ng/mL) [24] | 0
[15] | 4.02
[25] | 2.59
[26] | 4.14
[27] | 3.11
[28] | 3.81

CCn1c(C(=O)N(C2CC2)C2CC2)cc2c3c(ncn3C)c(Nc3cc(C)n(C)n3)nc21 (max concentration tested 10000 nM)
percent inhibition of viability [%]
Settings | 1 nM | 10 nM | 100 nM | 1000 nM | 10000 nM
DERL-7 (IL-2 2.5 ng/mL) [2] | 0.43 | 0.75 | 1.97 | 12.3 | 54.1
IMC-1 (IL-2 20 ng/mL) [3] | -1.17 | 2.69 | 0.12 | -11.6 | -7.89
KAI3 (IL-2 2.5 ng/mL) [4] | 14.1 | 21.2 | 27.8 | 44.8 | 76.3
KHYG-1 (IL-2 2.5 ng/mL) [5] | 4.48 | 5.02 | 4.17 | 12.6 | 69.7
NK-92 (IL-2 2.5 ng/mL) [6] | 4.07 | 7.86 | -2 | 9.2 | 60.7
NK-YS (IL-2 2.5 ng/mL) [7] | 4.8 | 6.33 | 4.46 | 16.1 | 36.6
NKL (IL-2 2.5 ng/mL) [8] | 0.96 | -1.04 | 3.26 | 41.2 | 70.4
SNK-6 (IL-2 2.5 ng/mL) [9] | -4.81 | 22.8 | -3.45 | -16.6 | 7.74
YT (IL-2 2.5 ng/mL) [10] | 9.25 | 9.54 | 7.25 | 14.5 | 46.5
[1] | 5.29 | 4.9 | 4.54 | 16 | 63.8
[11] | -3.85 | -1.69 | -6.9 | 11.7 | 41.6
[12] | -6.63 | -4.84 | -10.8 | 4.13 | 5.86
[13] | -2.38 | -1.43 | 0.57 | 3.6 | 49
[14] | 5.51 | -1.86 | 3.33 | 6.54 | 30.7

Settings | drug sensitivity score
DERL-7 (IL-2 2.5 ng/mL) [16] | 4.87
IMC-1 (IL-2 20 ng/mL) [17] | 0
KAI3 (IL-2 2.5 ng/mL) [18] | 14.5
KHYG-1 (IL-2 2.5 ng/mL) [19] | 5.93
NK-92 (IL-2 2.5 ng/mL) [20] | 4.85
NK-YS (IL-2 2.5 ng/mL) [21] | 3.29
NKL (IL-2 2.5 ng/mL) [22] | 8.84
SNK-6 (IL-2 2.5 ng/mL) [23] | 0
YT (IL-2 2.5 ng/mL) [24] | 4.02
[15] | 5.99
[25] | 3.85
[26] | 0
[27] | 3.12
[28] | 2.38
